{"source": "patent US20080201790A1", "about": "“Method and product for regulating cell responsiveness to external signals” (priority 1993, published 2008)", "key": {"MEKK1": {"test_system": "MEKK1", "experiment": "Cellular localization of MEKK1 in Swiss 3T3 cells, antibody staining", "type": "cell-based", "details": "serum starved Swiss 3T3 cells, 10 minutes", "from_the_text": "(§1) Cells were fixed and stained with an antibody specifically recognizing either MEKK1 or MEKK2. Secondary FITC-conjugated anti-rabbit IgG antibody was used for staining."}, "MEKK2": {"test_system": "MEKK2", "experiment": "Cellular localization of MEKK2 in Swiss 3T3 cells, antibody staining", "type": "cell-based", "details": "serum starved Swiss 3T3 cells, 10 minutes", "from_the_text": "as §1"}, "B-Raf": {"test_system": "B-Raf", "experiment": "Raf activation assay in L929 cells, B-Raf", "type": "cell-based, murine", "description": "Cell lines and culture. L929 cells (ATCC CCL1 were maintained in Dulbecco's modified Eagle's medium with 5% newborn calf serum and 5% bovine calf serum (BCS) supplemented with 100 ug/ml streptomycin and 100 U/ml penicillin. The cells were grown in 10 cm dishes at 37° C. in 7.5% CO2. Cells were made quiescent where indicated by incubation in Dulbecco's modified Eagle's medium and 0.1% bovine serum albumin for 24 h. Recombinant murine TNFα and recombinant human bFGF (147aa) were from R&D Systems, Minneapolis, Minn. Cells were pretreated where indicated with the MEK-1 inhibitor PD#098059 (Parke-Davis Pharmaceutical Corp. Ann Arbor, Mich.) for 1 h at 37° C. Cells were stimulated by incubation with the indicated cytokine or growth factor for various times at 37° C. […] JNK activity was measured using a solid state kinase assay in which glutathione S-transferase-c-Jun (1-79) (GST-JUN) cound to glutathione-Sepharose 4B beads was used to affinity purify JNK and then JNK activity was measured in an in vitro kinase assay using the sepharose bound GST-Jun as a substrate (Hibi, M., et al. (1993) Genes & Development 7:2135-2148). […] MAPK Assay MAPK activity was measured exactly as described previously (Gardner, A. M., et al. (1994) Meth. Enzymol. 238:258-270) with the exception that MonoQ FPLC fractionation was replaced by step elution from a DEAE-Sephacel column using 0.5 M NaCl in loading buffer. […]"}, "L929 fibroblasts": {"test_system": "L929 fibroblasts", "experiment": "TNF-induced apoptosis in L929 fibroblasts with Lac Switch MEKK1COOH expression", "type": "cell-based, murine", "from_the_text": "In L929 cells expressing the MEKK1COOH domain, exposure to TNF and IPTG increased the percentage of apoptotic cells to 40%, approximately a 2-fold increase."}}, "data": [{"substance": "TNFα", "values": [{"measurement": "cellular localization of MEKK1", "setting": "MEKK1", "value": "had no effect on the cellular localization of MEKK1"}, {"measurement": "cellular localization of MEKK2", "setting": "MEKK2", "value": "induced a translocation of MEKK2 to the plasma membrane"}, {"measurement": "activation of B-Raf (phosphorylation of kinase-inactive MEK-1)", "setting": "B-Raf", "value": "does not significantly activate either isoform of Raf"}, {"measurement": "percentage of apoptotic cells, control L929 cells", "setting": "L929 fibroblasts; TNF exposure, presence or absence of IPTG", "value": "approximately 20%"}, {"measurement": "level of apoptotic cells, L929 cells expressing the kinase inactive mutant", "setting": "L929 fibroblasts; exposure to TNF", "value": "did not increase the level of apoptotic cells above levels seen in controls"}, {"measurement": "increase of percentage of apoptotic cells, MEKK1COOH cells versus control", "setting": "L929 fibroblasts; exposure to TNF and IPTG", "value": "~2", "unit": "fold"}, {"measurement": "percentage of apoptotic cells, L929 cells expressing the MEKK1COOH domain", "setting": "L929 fibroblasts; exposure to TNF and IPTG", "value": 40, "unit": "%"}]}, {"substance": "bFGF: recombinant human bFGF (147aa), basic fibroblast growth factor", "values": [{"measurement": "activation of B-Raf (phosphorylation of kinase-inactive MEK-1)", "setting": "B-Raf", "value": "activation of both B-Raf and C-Raf"}]}]}
